Converted amounts (≈) assume the structure as drawn.
What was measured:
N. gonorrhoeae [1] = assay: MIC determination, agar dilution (CLSI); type: cell-based, Neisseria gonorrhoeae
Procedure, shortened: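 For N. gonorrhoeae, WHO 2024 reference strains served as quality control, only whole doubling-dilution MICs were reported, and isolates were classified by EUCAST v14.0 breakpoints or ECOFF. Time-kill assays followed CLSI in Columbia broth with 1% IsoVitaleX, and viable counts came from plating serial dilutions on GC agar with IsoVitaleX.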

N. gonorrhoeae [2] = assay: MIC determination, broth microdilution (baseline for liquid-based assays); type: cell-based, Neisseria gonorrhoeae; settings: for MIC: Neisseria gonorrhoeae
Text: The 2024 WHO N. gonorrhoeae reference strains were used for quality control. Only whole MIC doubling dilutions are reported. Clinical breakpoints or the epidemiological cutoff (ECOFF, to indicate azithromycin resistance) from EUCAST (v14.0, https://www.eucast.org/clinical_breakpoints) were used to classify isolates as antimicrobial susceptible or resistant. […] Two times the standard inoculum defined by CLSI was used to establish consistent growth in untreated control samples for some strains. In vitro time-kill assays were performed according to CLSI guidelines[65] using Columbia Broth (BD Difco) supplemented with 1% IsoVitaleX Enrichment (BD). Viable bacterial counts were generated by plating 10-fold serially diluted samples on GC agar plates containing 1% IsoVitaleX Enrichment (BD).

[3] = Neisseria gonorrhoeae, 100 contemporary clinical N. gonorrhoeae isolates

SMILES: Cc1c(CN(C)C(=O)/C=C/c2cnc3c(c2)N[C@H](C)[C@H](O)C(=O)N3)oc2ccccc12 [Debio 1453]
- MIC (N. gonorrhoeae [1]; Neisseria gonorrhoeae, clinical N. gonorrhoeae isolate 86, Sweden 2023, read-out: Minimum inhibitory concentration): 0.032 µg/mL (≈ 0.0761 µM)
- MIC (N. gonorrhoeae [1]; Neisseria gonorrhoeae, clinical N. gonorrhoeae isolate 87, Sweden 2023, read-out: Minimum inhibitory concentration): 0.016 µg/mL (≈ 0.0381 µM)
- MIC (N. gonorrhoeae [1]; Neisseria gonorrhoeae, clinical N. gonorrhoeae isolate 88, Sweden 2023, read-out: Minimum inhibitory concentration): 0.064 µg/mL (≈ 0.152 µM)
- MIC (N. gonorrhoeae [1]; Neisseria gonorrhoeae, clinical N. gonorrhoeae isolate 89, Sweden 2023, read-out: Minimum inhibitory concentration): 0.032 µg/mL (≈ 0.0761 µM)
- MIC (N. gonorrhoeae [1]; Neisseria gonorrhoeae, clinical N. gonorrhoeae isolate 90, Sweden 2023, read-out: Minimum inhibitory concentration): 0.125 µg/mL (≈ 0.297 µM)
- MIC (N. gonorrhoeae [1]; Neisseria gonorrhoeae, clinical N. gonorrhoeae isolate 91, Sweden 2023, read-out: Minimum inhibitory concentration): 0.032 µg/mL (≈ 0.0761 µM)
- MIC (N. gonorrhoeae [1]; Neisseria gonorrhoeae, clinical N. gonorrhoeae isolate 92, Sweden 2023, read-out: Minimum inhibitory concentration): 0.016 µg/mL (≈ 0.0381 µM)
- MIC (N. gonorrhoeae [1]; Neisseria gonorrhoeae, clinical N. gonorrhoeae isolate 93, Sweden 2023, read-out: Minimum inhibitory concentration): 0.125 µg/mL (≈ 0.297 µM)
- MIC (N. gonorrhoeae [1]; Neisseria gonorrhoeae, clinical N. gonorrhoeae isolate 94, Sweden 2023, read-out: Minimum inhibitory concentration): 0.064 µg/mL (≈ 0.152 µM)
- MIC (N. gonorrhoeae [1]; Neisseria gonorrhoeae, clinical N. gonorrhoeae isolate 95, Sweden 2023, read-out: Minimum inhibitory concentration): 0.064 µg/mL (≈ 0.152 µM)
- MIC (N. gonorrhoeae [1]; Neisseria gonorrhoeae, clinical N. gonorrhoeae isolate 96, Sweden 2023, read-out: Minimum inhibitory concentration): 0.032 µg/mL (≈ 0.0761 µM)
- MIC (N. gonorrhoeae [1]; Neisseria gonorrhoeae, clinical N. gonorrhoeae isolate 97, Sweden 2023, read-out: Minimum inhibitory concentration): 0.064 µg/mL (≈ 0.152 µM)
- MIC (N. gonorrhoeae [1]; Neisseria gonorrhoeae, clinical N. gonorrhoeae isolate 98, Sweden 2023, read-out: Minimum inhibitory concentration): 0.064 µg/mL (≈ 0.152 µM)
- MIC (N. gonorrhoeae [1]; Neisseria gonorrhoeae, clinical N. gonorrhoeae isolate 99, Sweden 2023, read-out: Minimum inhibitory concentration): 0.008 µg/mL (≈ 0.019 µM)
- MIC (N. gonorrhoeae [1]; Neisseria gonorrhoeae, clinical N. gonorrhoeae isolate 100, Sweden 2023, read-out: Minimum inhibitory concentration): 0.008 µg/mL (≈ 0.019 µM)
- MIC (N. gonorrhoeae [1]; Neisseria gonorrhoeae, read-out: MIC relevant for mutant selection assay, WHO Z): 0.125 µg/mL (≈ 0.297 µM)
- MIC (N. gonorrhoeae [1]; Neisseria gonorrhoeae, screening panel N. gonorrhoeae isolate A, read-out: Minimum inhibitory concentration): 0.06 µg/mL (≈ 0.143 µM)
- MIC (N. gonorrhoeae [1]; Neisseria gonorrhoeae, screening panel N. gonorrhoeae isolate B, read-out: Minimum inhibitory concentration): 0.03 µg/mL (≈ 0.0713 µM)
- MIC (N. gonorrhoeae [1]; Neisseria gonorrhoeae, screening panel N. gonorrhoeae isolate C, read-out: Minimum inhibitory concentration): 0.03 µg/mL (≈ 0.0713 µM)
- MIC (N. gonorrhoeae [1]; Neisseria gonorrhoeae, screening panel N. gonorrhoeae isolate D, read-out: Minimum inhibitory concentration): 0.03 µg/mL (≈ 0.0713 µM)
- MIC (N. gonorrhoeae [1]; Neisseria gonorrhoeae, screening panel N. gonorrhoeae isolate E, read-out: Minimum inhibitory concentration): 0.03 µg/mL (≈ 0.0713 µM)
- MIC (N. gonorrhoeae [1]; Neisseria gonorrhoeae, screening panel N. gonorrhoeae isolate F, read-out: Minimum inhibitory concentration): 0.125 µg/mL (≈ 0.297 µM)
- MIC (N. gonorrhoeae [1]; Neisseria gonorrhoeae, screening panel N. gonorrhoeae isolate G, read-out: Minimum inhibitory concentration): 0.125 µg/mL (≈ 0.297 µM)
- MIC (N. gonorrhoeae [1]; Neisseria gonorrhoeae, screening panel N. gonorrhoeae isolate H, read-out: Minimum inhibitory concentration): 0.06 µg/mL (≈ 0.143 µM)
- MIC (N. gonorrhoeae [1]; Neisseria gonorrhoeae, screening panel N. gonorrhoeae isolate I, read-out: Minimum inhibitory concentration): 0.03 µg/mL (≈ 0.0713 µM)
- MIC (N. gonorrhoeae [1]; Neisseria gonorrhoeae, screening panel N. gonorrhoeae isolate J, read-out: Minimum inhibitory concentration): 0.06 µg/mL (≈ 0.143 µM)
- MIC (N. gonorrhoeae [1]; Neisseria gonorrhoeae, screening panel N. gonorrhoeae isolate K, read-out: Minimum inhibitory concentration): 0.125 µg/mL (≈ 0.297 µM)
- MIC (N. gonorrhoeae [1]; Neisseria gonorrhoeae, screening panel N. gonorrhoeae isolate L, read-out: Minimum inhibitory concentration): 0.06 µg/mL (≈ 0.143 µM)
- MIC (N. gonorrhoeae [1]; Neisseria gonorrhoeae, screening panel N. gonorrhoeae isolate M, read-out: Minimum inhibitory concentration): 0.03 µg/mL (≈ 0.0713 µM)
- MIC (N. gonorrhoeae [1]; Neisseria gonorrhoeae, screening panel N. gonorrhoeae isolate N, read-out: Minimum inhibitory concentration): 0.03 µg/mL (≈ 0.0713 µM)
- MIC (N. gonorrhoeae [1]; Neisseria gonorrhoeae, two clones of strain 6804 with FabI L257F): 0.25 µg/mL (≈ 0.595 µM)
- MIC50 (N. gonorrhoeae [1]; [3]): 0.06 µg/mL (≈ 0.143 µM)
- MIC90 (N. gonorrhoeae [1]; [3]): 0.06 µg/mL (≈ 0.143 µM)
- NgMIC50 (N. gonorrhoeae [1]; screening panel of 14 N. gonorrhoeae isolates): 0.03 µg/mL
- MIC, broth microdilution (N. gonorrhoeae [2]; 6804): 0.06 µg/mL (≈ 0.143 µM)
- MIC, broth microdilution (N. gonorrhoeae [2]; AR Bank0175): 0.06 µg/mL (≈ 0.143 µM)
- MIC, broth microdilution (N. gonorrhoeae [2]; AR Bank0179): 0.06 µg/mL (≈ 0.143 µM)
- MIC (N. gonorrhoeae [2]; ATCC49226, read-out: MIC, broth microdilution, ATCC 49226): 0.125 µg/mL (≈ 0.297 µM)
- MIC (N. gonorrhoeae [2]; ATCC700825, ATCC 700825, read-out: MIC, broth microdilution): 0.03 µg/mL (≈ 0.0713 µM)
- MIC (N. gonorrhoeae [2]; read-out: MIC, broth microdilution, WHO V): 0.125 µg/mL (≈ 0.297 µM)
- MIC (N. gonorrhoeae [2]; read-out: MIC, broth microdilution, WHO X): 0.125 µg/mL (≈ 0.297 µM)
- MIC (N. gonorrhoeae [2]; read-out: MIC, broth microdilution, WHO Y): 0.125 µg/mL (≈ 0.297 µM)
- MIC (N. gonorrhoeae [2]; read-out: MIC, broth microdilution, WHO Z): 0.125 µg/mL (≈ 0.297 µM)
- MIC (N. gonorrhoeae [2]; 6926, read-out: MIC, broth microdilution): 0.06 µg/mL (≈ 0.143 µM)
